Test results as given in patent US11180475B2, “Crystal form I of a 5-aminopyrazole carboxamide compound as BTK inhibitor” (SinoMab BioScience Limited, priority 2017, dated 2021).

Tests used:
[1] = molecular target: hERG (Homo sapiens, UniProt Q12809); test: hERG binding assay (Dofetillide method); conditions: read-out: IC50 for hERG inhibition
Excerpt: The IC50 value of a compound for hERG inhibition can be determined according to the method described in the patent application US20050214870 A1.

[2] = test system: T cells; test: T cell inhibition assay (CD69, flow cytometry); type: cell-based; conditions: Homo sapiens, 1 hour exposure, washed, anti-CD3/CD28 beads 18 hours, read-out: IC50, inhibitory activity on T cells
Method: T cells were obtained by purification of healthy donor blood through negative selections using the RosetteSep Human T Cell Enrichment Mix. Cells were plated in a growth medium (10% RPMI+10% fetal bovine serum) and the inhibitor was added at specified concentrations. After incubating for 1 hour at 37° C., the cells were washed three times, and each wash was used for 10-fold dilution in the growth medium. The cells were then stimulated with anti-CD3/CD28 coated beads (bead/cell ratio 1:1) for 18 hours at 37° C. Cells were subsequently stained with an anti-CD69-PE antibody and analyzed by flow cytometry using standard conditions. According to the above experimental methods, compound (R)-5-amino-3-(4-((5-chloropyridin-2-yl)oxy)phenyl)-1-(4-cyano-4-azaspiro[2.5]oct-6-yl)-1H-pyrazole-4-carboxamide (I) has very low or no inhibitory activity on T cells, with an IC50 values higher than 4000 nM.

[3] = Stability study in liver microsomes; type: in vitro ADME, human, dog, rat, and mouse; conditions: 60 minutes incubation, 37° C., liver microsomes of various species
Method: 1. Compound (R)-5-amino-3-(4-((5-chloropyridin-2-yl)oxy)phenyl)-1-(4-cyano-4-azaspiro[2.5]oct-6-yl)-1H-pyrazole-4-carboxamide (I) was dissolved in acetonitrile to prepare a stock solution having a concentration of 0.5 mM.
2. 2 μL of stock solution was added to a 1.5 ml centrifuge tube, and then 148 μL of phosphate buffer (100 mM, pH 7.4) and 10 μL of liver microsome suspension (the protein concentration was 20 mg/ml) [BD Gentest] were added. The liver microsomes were derived from the species of human, dog, rat, and mouse; The control group was added with 158 μL of phosphate buffer (100 mM, pH 7.4).
3. The mixture obtained in step 2 was pre-incubated in a 37° C. water bath for 3 minutes; then 40 μL of NADPH generating system (containing NADP+: 6.5 mM, glucose 6-phosphate: 16.5 mM, MgCl2: 16.5 mM, glucose 6-phosphate dehydrogenase: 2 U/ml) was added to initiate the reaction. The reaction system was incubated in a 37° C. water bath for 1 hour.
4. After the reaction was carried out for 1 hour, the centrifuge tube was removed from the water bath, and the reaction was terminated by adding 400 μL of acetonitrile, followed by vortexing for 3 minutes. […]
6. After 60 minutes of incubation, the percentage of remaining drug in the incubation system was calculated as follows: Remaining Drug (%)=Cr/C0×100%

[4] = test system: B cells in human whole blood; test: Inhibition assay on human whole blood B cells (CD69); type: cell-based; conditions: B-cell, anti-human IgM F(ab')2 stimulation 20 hours, read-out: IC50, inhibitory activity on B cells in human whole blood
Method: Human whole blood (hWB) was obtained from healthy volunteers and blood was collected by venipuncture into a heparin sodium-anticoagulant Vacutainer tube. Test compounds were diluted 10 times in PBS to the required initial drug concentration), followed by three-fold serial dilutions with 10% DMSO in PBS to obtain a 9-point dose response curve. 5.5 μL of each diluted compound was added to the aiil 96-well V-bottom plate in duplicate; 5.5 μL of 10% DMSO in PBS was added to control and non-stimulated wells. Human whole blood (100 μL) was added to each well, and after mixing, the plates were incubated for 30 minutes at 37° C. and in 5% CO2, 100% humidity. An anti-human IgM F(ab′)2 (Southern Biotech) (10 μL of 500 μg/mL solution, 50 μg/mL final concentration) was added to each well (except for non-stimulated wells) with vortexing, and the plate was further incubated for another 20 hours. After 20-hour incubation, samples were incubated with 20 μL of fluorescent probe-labeled APC mouse anti-human CD69 (BD Pharmingen) for 30 minutes at 37° C., 5% CO2, 100% humidity. Induced controls, unstained, and single-stained samples were included for compensation and initial voltage settings. […] Results were initially analyzed using FACS analysis software (Flow Jo). The IC50 values were then calculated using XLfit v3, Equation 201.

[5] = molecular target: Recombinant Btk (Homo sapiens, UniProt Q06187); test: Kinase activity (BTK) inhibition assay, TR-FRET; type: biochemical; conditions: read-out: IC50, inhibitory effect on BTK kinase activity
Recombinant Btk, sequence (Q06187 whole entry): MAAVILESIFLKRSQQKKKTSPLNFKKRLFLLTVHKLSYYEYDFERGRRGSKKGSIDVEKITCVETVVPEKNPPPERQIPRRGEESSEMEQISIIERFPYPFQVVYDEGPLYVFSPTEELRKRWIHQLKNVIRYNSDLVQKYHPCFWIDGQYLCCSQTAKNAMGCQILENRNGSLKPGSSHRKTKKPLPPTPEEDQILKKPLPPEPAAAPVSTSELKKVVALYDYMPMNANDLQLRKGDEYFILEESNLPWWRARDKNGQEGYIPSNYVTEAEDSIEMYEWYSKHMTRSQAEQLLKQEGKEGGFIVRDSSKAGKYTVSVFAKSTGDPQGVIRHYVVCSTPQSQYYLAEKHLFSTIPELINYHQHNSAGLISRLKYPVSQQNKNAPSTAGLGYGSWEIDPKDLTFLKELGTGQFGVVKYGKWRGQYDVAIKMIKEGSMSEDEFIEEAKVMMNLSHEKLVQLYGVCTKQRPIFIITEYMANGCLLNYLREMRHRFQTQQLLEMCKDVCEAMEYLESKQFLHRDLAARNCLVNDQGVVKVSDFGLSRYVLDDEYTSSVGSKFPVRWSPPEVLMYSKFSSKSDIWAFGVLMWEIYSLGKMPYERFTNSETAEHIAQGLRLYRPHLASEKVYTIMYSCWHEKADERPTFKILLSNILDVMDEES
Method: The inhibitory effects of compound (R)-5-amino-3-(4-((5-chloropyridin-2-yl)oxy)phenyl)-1-(4-cyano-4-azaspiro[2.5]oct-6-yl)-1H-pyrazole-4-carboxamide (I) on BTK kinase activity were tested in an assay based on a time resolved fluorescence resonance energy transfer (TR-FRET) method. Recombinant Btk was pre-incubated with the compound disclosed herein in an assay buffer containing 50 mM Tris pH 7.4, 10 mM MgCl2, 2 mM MnCl2, 0.1 mM EDTA, 1 mM DTT, 20 nM SEB, 0.1% BSA, 0.005% tween-20 at room temperature for 1 hour. The reaction was initiated by the addition of ATP (at the ATP Km concentration) and the peptide substrate (Biotin-[…]-NH2). After incubation at room temperature for 1 hour, an equal volume of stop solution containing 50 mM HEPES pH 7.0, 800 mM KF, 20 mM EDTA, 0.1% BSA, p-Tyr66 antibody linked with Eu cryptate and streptavidin-labeled XL665 was added to stop the reaction. The plate was incubated at room temperature for an additional hour and then the TR-FRET signal was read on a BMG PHERAstar FS instrument (ex337 nm, em 620 nm/665 nm). Based on the ratio of the signal of fluorescence at 615 nm to 665 nm, the residual enzyme activity was calculated with an increased compound concentration. IC50 of each compound was obtained by fitting the data to the four-parameter equation of Graphpad Prism software.

[6] = test system: diffuse large B-cell lymphoma cell line TMD-8; test: Pharmacodynamic assay, TMD-8 xenograft; type: in vivo; conditions: NOD.SCID mice, p.o. daily for 21 days
Method: Severe immunodeficiency NOD.SCID mice were purchased from Beijing Vital River Laboratory Animal Technology Co., Ltd., and were housed in SPF grade animal room. After TMD-8 cells were cultured to the sufficient amount, the cells were collected by centrifugation and washed twice with PBS. Finally, the cells were resuspended in serum-free RPMI 1640 medium and Matrigel (1:1 v/v). 0.2 ml of cell suspension was injected subcutaneously on the right flank of each mouse using 1 ml syringe and 25G syringe needle. The tumor size was measured with a caliper after about one week post injection. The tumor volume was calculated according to the following formula: tumor volume=(length×width^2)/2. When the tumor volume reached about 100-200 mm^3, the mice were grouped and p.o. administered daily for 21 days.

[7] = test system: normal human B cells; test: B cell inhibition assay (CD69, flow cytometry); type: cell-based; conditions: 1 hour exposure, washed off, IgM F(ab')2 stimulation 18 hours, read-out: IC50, inhibitory activity on B cells
Method: Temporary exposure to a BTK inhibitor in vitro is sufficient to inhibit B cell activation in normal human B cells.
B cells were obtained by purification from healthy donor blood through negative selection using the RosetteSep human B Cell Enrichment Mix. Cells were plated in a growth medium (10% RPMI+10% fetal bovine serum) and the inhibitor was added at specified concentrations. After incubation at 37° C. for 1 hour, the cells were washed three times, and each wash was used for 8-fold dilution in the growth medium. The cells were then stimulated with 10 μg/mL IgM F(ab′)2 at 37° C. for 18 hours. Cells were subsequently stained with an anti-CD69-PE antibody and analyzed by flow cytometry using standard conditions.

[8] = Pharmacokinetics in rats; type: in vivo; conditions: rat, plasma, oral; male SD rats, p.o. 10 mg/kg vs i.v. 2 mg/kg
Method: 1. Male SD rats (HFK) were acclimatized in the laboratory for 7 days after arrival.
2. […], 3 animals in each group. One group was dosed by oral gavage (p.o.), and the other group was dosed by tail vein injection (i.v.). Rats in the p.o. group were fasted overnight before drug administration.
3. After drug administration, blood samples were collected from the rats via the posterior orbital venous plexus approach at the following time points: I.V.: (before drug administration), 0.08 hours, 0.25 hours, 0.5 hours, 1 hour, 2 hours, 4 hours, 8 hours, 24 hours; P.O.: 0.08 hour, 0.25 hour, 0.5 hour, 1 hour, 2 hours, 4 hours, 8 hours, 24 hours. About 300 μl of blood were collected at each collection time point.
4. The collected blood samples were centrifuged at 12000 rpm for 5 minutes at 4° C., and then the upper plasma samples were collected and stored in a refrigerator at −20° C.
6. […]
The pharmacokinetic parameters were calculated using the pharmacokinetic professional software WinNonlin [Model: Phoenix™ WinNonlin® 6.1; Manufacturer: Pharsight Corporation]. […]

[9] = test system: five CYP450 enzymes in human liver microsomes; test: Inhibition of CYP enzymes, cocktail probe substrates; type: in vitro ADME; conditions: CYP1A2, CYP2D6, CYP2C9, CYP2C19, CYP3A4
Method: METHOD: This experiment simultaneously determined the inhibitory effects of a compound on five CYP450 enzymes in human liver microsomes using the cocktail probe substrates approach. The human microsomes were from BD Gentest.
The reaction was carried out in 100 mM of phosphate buffer, with a total volume of 200 μL. The concentration of microsomes in the reaction system was 0.25 mg/mL, and the concentration of the test compound was 20 μM, 6.67 μM, 2.22 μM, 0.74 μM, and 0.25 μM. The specific probe substrates and concentration were phenacetin (CYP1A2) 40 μM, dextromethorphan (CYP2D6) 5 μM, diclofenac (CYP2C9) 10 μM, S-mephenytoin (CYP2C19) 40 μM, testosterone (CYP3A4) 80 μM, respectively. The mixture was pre-incubated in a 37° C. thermostatic shaker for 5 minutes, and the NADPH-generating system (containing 1.3 mM NADP+, 3.3 mM glucose 6-phosphate, […] glucose 6-phosphate dehydrogenase, 3.3 mM MgCl2) was added to start the reaction. After incubation for 45 minutes, the reaction was stopped by adding an equal volume of acetonitrile. The tube was vortexed and centrifuged at 13,000 rpm. The resulting supernatant was subjected to LC-MS-MS to determine the amount of produced metabolites. […] The final result of this experiment is the calculated half inhibitory concentration IC50 value.

hERG, sequence (Q12809 whole entry): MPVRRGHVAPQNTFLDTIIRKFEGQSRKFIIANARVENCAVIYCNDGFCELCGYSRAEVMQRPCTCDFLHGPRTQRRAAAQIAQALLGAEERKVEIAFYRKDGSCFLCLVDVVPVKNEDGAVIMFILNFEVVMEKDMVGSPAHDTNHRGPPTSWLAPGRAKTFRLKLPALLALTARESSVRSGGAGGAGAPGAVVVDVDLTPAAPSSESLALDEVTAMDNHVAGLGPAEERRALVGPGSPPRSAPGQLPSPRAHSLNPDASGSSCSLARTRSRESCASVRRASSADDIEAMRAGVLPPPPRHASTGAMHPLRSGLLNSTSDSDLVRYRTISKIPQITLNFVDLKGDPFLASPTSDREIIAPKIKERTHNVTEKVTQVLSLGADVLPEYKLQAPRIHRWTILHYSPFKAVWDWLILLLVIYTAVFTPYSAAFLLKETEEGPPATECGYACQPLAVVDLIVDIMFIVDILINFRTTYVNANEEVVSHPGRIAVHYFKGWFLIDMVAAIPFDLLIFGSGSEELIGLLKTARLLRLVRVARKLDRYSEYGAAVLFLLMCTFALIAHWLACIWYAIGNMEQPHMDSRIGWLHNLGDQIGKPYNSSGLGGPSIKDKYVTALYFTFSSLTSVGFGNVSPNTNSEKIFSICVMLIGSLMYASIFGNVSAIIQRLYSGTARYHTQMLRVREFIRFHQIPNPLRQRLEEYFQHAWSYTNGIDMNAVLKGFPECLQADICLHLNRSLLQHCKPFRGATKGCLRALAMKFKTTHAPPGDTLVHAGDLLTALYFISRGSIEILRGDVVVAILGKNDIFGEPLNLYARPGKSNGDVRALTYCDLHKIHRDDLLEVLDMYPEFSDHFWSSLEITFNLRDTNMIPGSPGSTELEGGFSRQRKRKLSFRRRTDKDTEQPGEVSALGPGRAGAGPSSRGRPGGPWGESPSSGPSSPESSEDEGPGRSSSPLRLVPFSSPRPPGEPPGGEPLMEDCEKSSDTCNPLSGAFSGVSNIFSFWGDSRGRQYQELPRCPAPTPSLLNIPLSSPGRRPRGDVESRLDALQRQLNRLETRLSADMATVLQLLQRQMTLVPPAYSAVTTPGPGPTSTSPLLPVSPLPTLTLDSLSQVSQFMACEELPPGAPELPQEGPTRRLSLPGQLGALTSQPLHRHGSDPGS

With `N#CN1C[C@H](n2nc(-c3ccc(Oc4ccc(Cl)cn4)cc3)c(C(N)=O)c2N)CCC12CC2` [Compound I, (R)-5-amino-3-(4-((5-chloropyridin-2-yl)oxy)phenyl)-1-(4-cyano-4-azaspiro[2.5]oct-6-yl)-1H-pyrazole-4-carboxamide] the IC50 [1] was over 1000 nM, the IC50 [2] was over 4000 nM and the “Remaining Drug (%), residual percentage in liver microsomes” value [3] was over 30%. The IC50 [4] was under 200 nM, the IC50 [5] was under 100 nM and the “inhibition of TMD-8 tumor growth in vivo” value [6] was “significantly inhibited the growth”. For the same compound, the IC50 [7] was under 10 nM, the bioavailability [8] was over 40% and the “inhibitory effect on various CYP enzymes” value [9] was “very low or no inhibitory effect”.
